# Results taken from article PMC11121924, “Protopine and Allocryptopine Interactions with Plasma Proteins” (International Journal of Molecular Sciences, 2024).
# Tests used:
# [1] = target: T1, α-1-acid glycoprotein (AAG, orosomucoid) (Homo sapiens, UniProt P02763); assay: UV-Vis absorption titration (Benesi-Hildebrand); quinaldine red displacement by fluorescence; type: binding
# T1 construct: gene ORM1
# [2] = target: T2, human serum albumin (HSA) (Homo sapiens, UniProt P02768); assay: UV-Vis absorption titration (Benesi-Hildebrand); dPhe marker displacement by fluorescence; type: binding
# T2 construct: gene ALB
# T2 sequence (P02768 25-609): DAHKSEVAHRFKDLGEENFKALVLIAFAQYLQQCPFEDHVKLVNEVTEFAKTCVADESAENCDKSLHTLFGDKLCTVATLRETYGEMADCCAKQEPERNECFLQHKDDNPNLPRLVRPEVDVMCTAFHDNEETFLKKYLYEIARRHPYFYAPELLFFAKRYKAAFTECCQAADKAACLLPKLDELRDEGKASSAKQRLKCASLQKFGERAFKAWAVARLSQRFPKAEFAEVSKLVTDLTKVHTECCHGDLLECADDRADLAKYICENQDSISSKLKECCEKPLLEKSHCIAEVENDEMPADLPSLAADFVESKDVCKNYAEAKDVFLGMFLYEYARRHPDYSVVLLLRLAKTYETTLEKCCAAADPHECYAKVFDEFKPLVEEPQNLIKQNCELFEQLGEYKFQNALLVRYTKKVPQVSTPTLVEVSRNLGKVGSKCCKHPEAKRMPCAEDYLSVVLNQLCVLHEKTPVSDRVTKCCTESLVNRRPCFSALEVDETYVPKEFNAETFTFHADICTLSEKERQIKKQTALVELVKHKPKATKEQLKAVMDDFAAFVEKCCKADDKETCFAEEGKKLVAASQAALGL
# T1 sequence (P02763 19-201): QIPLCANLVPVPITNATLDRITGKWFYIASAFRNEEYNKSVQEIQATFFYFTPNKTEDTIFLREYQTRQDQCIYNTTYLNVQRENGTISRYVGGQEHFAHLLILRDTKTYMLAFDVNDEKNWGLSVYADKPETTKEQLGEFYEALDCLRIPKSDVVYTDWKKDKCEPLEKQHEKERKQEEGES
SMILES,Kapp.10^4 [dm^3mol^-1] [1],Kd [2],Kd ([1]; read-out: Kapp.10^4 [dm^3mol^-1] (converted))
"CN1CCc2cc3c(cc2C(=O)Cc2ccc4c(c2C1)OCO4)OCO3 [PP, protopine]",1.34 ± 0.0.03,46.9 µM,
"COc1ccc2c(c1OC)CN(C)CCc1cc3c(cc1C(=O)C2)OCO3 [ACP, allocryptopine]",,19.9 µM,44.6 µM
